Test results reported in PubChem BioAssay AID1919005 (Molecular Pharmacology Branch, DTP, NCI, 2023).

Test system: 855422-203-R-J1-PDC complex spheroid growth
Test: Anticancer human tumor 855422-203-R-J1-PDC patient-derived bladder carcinoma cell line growth inhibition [AhR]
Conditions: for viability, T/C: stronger effect = lower value; active = viability on the fitted dose curve at most 10% of control; inactive = the rest
Method in brief: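 Spheroids combined tumor cells with HUVEC endothelial cells and human MSCs as stroma. AhR antagonists were paired with standard or investigational drugs, each dosed in half-log steps down from near clinical Cmax, or from 10 microM where Cmax was unknown.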

[1] = curve of first compound, second compound 0.1 µM
[2] = curve of first compound, second compound 0.316 µM
[3] = curve of first compound, second compound 1 µM
[4] = curve of first compound, second compound 3.16 µM
[5] = curve of first compound, second compound 10 µM
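Also: spheroids exposed to agents for seven days before readout.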
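For viability, T/C in this document: percent of DMSO vehicle control luminescence viability.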

CCc1c2c(nc3ccc(O)cc13)-c1cc3c(c(=O)n1C2)COC(=O)[C@]3(O)CC + Cc1cncc(-c2nc(NCCc3c[nH]c4ccccc34)c3ncn(C(C)C)c3n2)c1
2.9 nM: IC50 [1]
inactive: viability, T/C (second compound 0.1 µM, first compound 0.000949 µM) 99.6% | viability, T/C (second compound 0.1 µM, first compound 0.003 µM) 48.6% | viability, T/C (second compound 0.1 µM, first compound 0.00949 µM) 12.1% | viability, T/C (second compound 0.316 µM, first compound 0.000949 µM) 76.5% | viability, T/C (second compound 0.316 µM, first compound 0.003 µM) 35% | viability, T/C (second compound 0.316 µM, first compound 0.00949 µM) 9.9% | viability, T/C (second compound 1 µM, first compound 0.000949 µM) 72.3% | viability, T/C (second compound 1 µM, first compound 0.003 µM) 32.6% | viability, T/C (second compound 1 µM, first compound 0.00949 µM) 11.4% | viability, T/C (second compound 3.16 µM, first compound 0.000949 µM) 54.2% | viability, T/C (second compound 3.16 µM, first compound 0.003 µM) 22.2%
1.81 nM: IC50 [3]
< 0.949 nM: IC50 [5]
1.98 nM: IC50 [2]
1.09 nM: IC50 [4]
active: viability, T/C (second compound 0.1 µM, first compound 0.03 µM) 9.21% | viability, T/C (second compound 0.1 µM, first compound 0.0949 µM) 6.44% | viability, T/C (second compound 0.1 µM, first compound 0.3 µM) 3.75% | viability, T/C (second compound 0.316 µM, first compound 0.03 µM) 10% | viability, T/C (second compound 0.316 µM, first compound 0.0949 µM) 6.31% | viability, T/C (second compound 0.316 µM, first compound 0.3 µM) 4.22% | viability, T/C (second compound 1 µM, first compound 0.03 µM) 9.74% | viability, T/C (second compound 1 µM, first compound 0.0949 µM) 6.96% | viability, T/C (second compound 1 µM, first compound 0.3 µM) 4.13% | viability, T/C (second compound 3.16 µM, first compound 0.00949 µM) 10.7% | viability, T/C (second compound 3.16 µM, first compound 0.03 µM) 4.55% | viability, T/C (second compound 3.16 µM, first compound 0.0949 µM) 5.79% | viability, T/C (second compound 3.16 µM, first compound 0.3 µM) 3.2% | viability, T/C (second compound 10 µM, first compound 0.000949 µM) 3.26% | viability, T/C (second compound 10 µM, first compound 0.003 µM) 2.2% | viability, T/C (second compound 10 µM, first compound 0.00949 µM) 3.05% | viability, T/C (second compound 10 µM, first compound 0.03 µM) 0.55% | viability, T/C (second compound 10 µM, first compound 0.0949 µM) 1.43% | viability, T/C (second compound 10 µM, first compound 0.3 µM) 1.83%

Cc1cncc(-c2nc(NCCc3c[nH]c4ccccc34)c3ncn(C(C)C)c3n2)c1
inactive: viability, T/C (compound 0.1 µM) 92.2% [middle of 19 runs] | viability, T/C (compound 1 µM) 86.3% [middle of 20 runs]
5.43 µM [middle of 22 runs]: IC50 (compound alone, run of 06/06/2022)

O=C(c1cc(Cc2n[nH]c(=O)c3ccccc23)ccc1F)N1CCN(C(=O)C2CC2)CC1 + Cc1cncc(-c2nc(NCCc3c[nH]c4ccccc34)c3ncn(C(C)C)c3n2)c1
< 31.6 nM: IC50 [5]
> 10000 nM: IC50 [1] | IC50 [2] | IC50 [3] | IC50 [4]
inactive: viability, T/C (second compound 0.1 µM, first compound 0.0316 µM) 106% | viability, T/C (second compound 0.1 µM, first compound 0.1 µM) 102% | viability, T/C (second compound 0.1 µM, first compound 0.316 µM) 99.6% | viability, T/C (second compound 0.1 µM, first compound 1 µM) 103% | viability, T/C (second compound 0.1 µM, first compound 3.16 µM) 108% | viability, T/C (second compound 0.1 µM, first compound 10 µM) 90.9% | viability, T/C (second compound 0.316 µM, first compound 0.0316 µM) 102% | viability, T/C (second compound 0.316 µM, first compound 0.1 µM) 109% | viability, T/C (second compound 0.316 µM, first compound 0.316 µM) 101% | viability, T/C (second compound 0.316 µM, first compound 1 µM) 93.7% | viability, T/C (second compound 0.316 µM, first compound 3.16 µM) 101% | viability, T/C (second compound 0.316 µM, first compound 10 µM) 86.7% | viability, T/C (second compound 1 µM, first compound 0.0316 µM) 98.2% | viability, T/C (second compound 1 µM, first compound 0.1 µM) 93% | viability, T/C (second compound 1 µM, first compound 0.316 µM) 103% | viability, T/C (second compound 1 µM, first compound 1 µM) 87.9% | viability, T/C (second compound 1 µM, first compound 3.16 µM) 94.7% | viability, T/C (second compound 1 µM, first compound 10 µM) 89.5% | viability, T/C (second compound 3.16 µM, first compound 0.0316 µM) 78.6% | viability, T/C (second compound 3.16 µM, first compound 0.1 µM) 83.6% | viability, T/C (second compound 3.16 µM, first compound 0.316 µM) 75.9% | viability, T/C (second compound 3.16 µM, first compound 1 µM) 71.2% | viability, T/C (second compound 3.16 µM, first compound 3.16 µM) 89.8% | viability, T/C (second compound 3.16 µM, first compound 10 µM) 78.6% | viability, T/C (second compound 10 µM, first compound 0.0316 µM) 16.8% | viability, T/C (second compound 10 µM, first compound 0.1 µM) 12.5%
active: viability, T/C (second compound 10 µM, first compound 0.316 µM) 7.7% | viability, T/C (second compound 10 µM, first compound 1 µM) 3.22% | viability, T/C (second compound 10 µM, first compound 3.16 µM) 6.34% | viability, T/C (second compound 10 µM, first compound 10 µM) 5.85%
